Test results: publication PMC6270976, “Pharmacokinetic Study in Mice of Galphimine-A, an Anxiolytic Compound from Galphimia glauca” (Molecules, 2014)
Like-named read-outs stand apart in the source and are kept apart here.

Assays:
[1] = Plasma pharmacokinetics of G–A after a single oral dose in ICR mice (HPLC, PKSolver); format: in vivo; set-up: t1/2ka (absorption half time): unit not given here; settings: for AUC(0-inf) / Cmax / Tmax / AUC(0-t) / CL/F / MRT / Vd/F / k el: ICR, po, 200 mg/kg; for AUC(0-t): read-out: AUC0-1440 min (converted); for CL/F: read-out: CL/F (apparent clearance); for MRT: read-out: MRT (mean residence time) (converted); for Vd/F: read-out: V/F (apparent volume of distribution)
Description: Eighty-eight mice were randomly divided into 11 groups with eight individuals each. All animals were orally administered with 200 mg/kg of G–A dissolved in 5% β-cyclodextrin solution. Under ether-induced anesthesia, blood samples were obtained from the retroorbital sinus with heparinized cannula at different times (0, 5, 10, 15, 30, 60, 120, 240, 480, 720, and 1,440 min) after G–A administration. The volume of the blood samples was of 700 to 1000 microliters, which were collected in heparinized centrifuge microtubes, after the blood was centrifuged for 5 min at 1,720 × g.
Plasma samples were frozen at −70 °C, and lyophilized after. The obtained dry product was used to extract and measure the amount of G–A. After obtaining blood samples, all animals were perfused with isotonic saline solution (ISS) via cardiac puncture; the femoral vein was used to eliminate the perfusion liquid, until it appeared clear. Subsequently, the brain was removed. The brains were weighed fresh and frozen at −70 °C and then lyophilized. Once dry, the brains were weighed again to determine the volume of water contained in each brain. Dry tissue was ground in a mortar, and G–A was later extracted.
Dry pulverized samples (plasma and brain) were extracted with methanol (HPLC grade, Merck). The extracts were filtered with a 0.45 μm, 13 mm Teflon membrane (Millex®-LCR), and 20 μL of filtrate were injected into the HPLC equipment. Measurements were performed in a Waters 2695 HPLC, with diode array detector (Waters 2996) and the Empower Pro 1.0 software. A Chromolith Performance® RP-18e 100 × 4.6 mm (Merck KGaA Darmstadt, Germany) was used. The mobile phase consisted of a mixture of acetonitrile:water (55:45, 1 mL/min). G–A concentration was obtained by comparison with a pre-built calibration curve at λ = 220 nm.
To evaluate the suitability of the assay for pharmacokinetic studies, 200 mg/kg of G–A was orally administered to mice. Eight animals were used in each group different times (0, 5, 10, 15, 30, 60, 120, 240, 480, 720, and 1440 min). Pharmacokinetic calculations were performed using the observed data. All data were subsequently processed using PKSolver add-in program for Microsoft Excel written in Visual Basic for Applications. […]
The pharmacokinetic model selection either one or two-comparment, were used both the Akaike information criterion (AIC) and Schwarz criterion (SC). Using the criteria, one may select the model with which to reach a lower value of AIC or SC, which means that the chosen model is more parsimonious (less parameters required) and best fits the data (low error prediction).

[2] = Stability of G–A in mouse brain tissue homogenate under handling conditions; format: in vitro ADME; settings: for Observed Concentration ± S.D.: n = 6
Description: (§1) The stability of G–A in mice plasma and brain was assessed by analyzing replicates (n = 6) of QC samples at concentrations of 0.8, 4.0 and 10 μg/mL for mice plasma and brain. The investigation covered expected conditions during all of the sample storage and process periods, which included the stability data from freeze/thaw, bench-top, autosampler and long–term stability test. For all stability studies, freshly prepared and stability testing QC samples were evaluated by using freshly prepared standard curves for the measurement. The concentrations obtained from all stability studies were compared with the freshly prepared QC samples, and the percentage concentration deviation was calculated. The analytes were considered stable in mouse plasma and brain when the concentration difference between the freshly prepared samples and the stability samples was less than 15%.

[3] = Stability of G–A in mouse plasma under handling conditions; format: in vitro ADME; settings: for Observed Concentration ± S.D.: n = 6
Description: as §1

[4] = mouse, plasma, one-compartment model, oral 200 mg/kg
[5] = mouse, plasma, plasma, one-compartment model, oral 200 mg/kg
[6] = mouse, plasma, plasma, two-compartment model, oral 200 mg/kg
[7] = mouse, plasma, two-compartment model, oral 200 mg/kg
[8] = plasma, one-compartment model, oral 200 mg/kg
[9] = plasma, two-compartment model, oral 200 mg/kg
[10] = brain tissue, 3 Freeze/thaw cycles (−70 °C), nominal 0.80 μg/mL
[11] = brain tissue, 3 Freeze/thaw cycles (−70 °C), nominal 4.00 μg/mL
[12] = brain tissue, 3 Freeze/thaw cycles (−70 °C), nominal 10.0 μg/mL
[13] = brain tissue, Autosampler stability (4 °C; 8 h), nominal 0.80 μg/mL
[14] = brain tissue, Autosampler stability (4 °C; 8 h), nominal 4.00 μg/mL
[15] = brain tissue, Autosampler stability (4 °C; 8 h), nominal 10.0 μg/mL
[16] = brain tissue, Long–term stability (−70 °C; 1 month), nominal 0.80 μg/mL
[17] = brain tissue, Long–term stability (−70 °C; 1 month), nominal 4.00 μg/mL
[18] = brain tissue, Long–term stability (−70 °C; 1 month), nominal 10.0 μg/mL
[19] = plasma, 3 Freeze/thaw cycles (−70 °C), nominal 0.80 μg/mL
[20] = plasma, 3 Freeze/thaw cycles (−70 °C), nominal 4.00 μg/mL
[21] = plasma, 3 Freeze/thaw cycles (−70 °C), nominal 10.0 μg/mL
[22] = plasma, Autosampler stability (4 °C; 8 h), nominal 0.80 μg/mL
[23] = plasma, Autosampler stability (4 °C; 8 h), nominal 4.00 μg/mL
[24] = plasma, Long–term stability (−70 °C; 1 month), nominal 0.80 μg/mL
[25] = plasma, Long–term stability (−70 °C; 1 month), nominal 4.00 μg/mL
[26] = plasma, Long–term stability (−70 °C; 1 month), nominal 10.0 μg/mL

Structure (SMILES): COC(=O)[C@@]12CC[C@]3(C)C([C@H](O)[C@H](O)[C@@]4([C@@H](C)O)COC(=O)C=C[C@H]43)[C@@]1(C)CC[C@@]1(C)CC=C(C)C[C@]12O (stereo partly drawn) [G–A, galphimine-A]
- G–A Concentration Plasma ([1]; 5 min after single oral 200 mg/kg, mean ± S.E.M., n = 8, 200 mg/kg): 2.47 ± 0.43 µg/mL
- AUC(0-inf) [1, 4]: 36200 ng·h/mL
- Cmax [1, 4]: 3330 ng/mL
- Tmax [1, 4]: 0.436 h
- AUC(0-t) [1, 5]: 32500 ng·h/mL
- CL/F [1, 5]: 92 mL/min/kg
- MRT [1, 5]: 10.5 h
- Vd/F [1, 5]: 57.6 L/kg
- k el ([1]; mouse, plasma, plasma, one-compartment model, oral 200 mg/kg, read-out: k10 (apparent first-order elimination rate constant) (converted)): 2.67e-05 s⁻¹
- k el ([1]; mouse, plasma, plasma, one-compartment model, oral 200 mg/kg, read-out: k10 (elimination rate constant) (converted)): 2.67e-05 s⁻¹
- AUC(0-t) [1, 6]: 30400 ng·h/mL
- CL/F [1, 6]: 98 mL/min/kg
- MRT [1, 6]: 10.3 h
- Vd/F [1, 6]: 55.5 L/kg
- k el ([1]; mouse, plasma, plasma, two-compartment model, oral 200 mg/kg, read-out: k10 (apparent first-order elimination rate constant) (converted)): 2.83e-05 s⁻¹
- k el ([1]; mouse, plasma, plasma, two-compartment model, oral 200 mg/kg, read-out: k10 (elimination rate constant) (converted)): 2.83e-05 s⁻¹
- AUC(0-inf) [1, 7]: 33800 ng·h/mL
- Cmax [1, 7]: 3420 ng/mL
- Tmax [1, 7]: 0.456 h
- concentration at 5 min ([1]; mouse, plasma, 5 min after single oral 200 mg/kg, mean ± S.E.M., n = 8): 2470 ng/mL
- concentration at 10 min ([1]; mouse, plasma, 10 min after single oral 200 mg/kg, mean ± S.E.M., n = 8): 2570 ± 520 ng/mL
- concentration at 15 min ([1]; mouse, plasma, 15 min after single oral 200 mg/kg, mean ± S.E.M., n = 8): 2790 ± 790 ng/mL
- concentration at 30 min ([1]; mouse, plasma, 30 min after single oral 200 mg/kg, mean ± S.E.M., n = 8): 3700 ± 700 ng/mL
- concentration at 60 min ([1]; mouse, plasma, 60 min after single oral 200 mg/kg, mean ± S.E.M., n = 8): 3440 ± 350 ng/mL
- concentration at 120 min ([1]; mouse, plasma, 120 min after single oral 200 mg/kg, mean ± S.E.M., n = 8): 2950 ± 430 ng/mL
- concentration at 240 min ([1]; mouse, plasma, 240 min after single oral 200 mg/kg, mean ± S.E.M., n = 8): 2330 ± 420 ng/mL
- concentration at 480 min ([1]; mouse, plasma, 480 min after single oral 200 mg/kg, mean ± S.E.M., n = 8): 1440 ± 370 ng/mL
- concentration at 720 min ([1]; mouse, plasma, 720 min after single oral 200 mg/kg, mean ± S.E.M., n = 8): 960 ± 210 ng/mL
- concentration at 1440 min ([1]; mouse, plasma, 1440 min after single oral 200 mg/kg, mean ± S.E.M., n = 8): 310 ± 20 ng/mL
- Plasma area under the G–A concentration time curve ([1]; one-compartment model, oral 200 mg/kg): 2,170 μg·min·mL^−1
- Time to detection in plasma after oral administration ([1]; oral 200 mg/kg): ≤ 5 min
- A (G–A plasma concentration in central compartment) [1, 8]: 3.50 µg/mL
- ka (apparent first-order absorption rate constant) [1, 8]: 0.182 min⁻¹
- t1/2ka (absorption half time) [1, 8]: 3.79
- A (G–A plasma concentration in central compartment) [1, 9]: 1.83 µg/mL
- B (G–A plasma concentration in peripheral compartment) [1, 9]: 1.82 µg/mL
- k12 (transfer rate constant central to peripheral compartment) [1, 9]: 0.00017 min⁻¹
- k21 (transfer rate constant peripheral to central compartment) [1, 9]: 0.00195 min⁻¹
- ka (apparent first-order absorption rate constant) [1, 9]: 0.164 min⁻¹
- t1/2ka (absorption half time) [1, 9]: 4.22
- α [1, 9]: 0.0025 min⁻¹
- β [1, 9]: 0.0014 min⁻¹
- Plasma area under the G–A concentration time curve ([1]; two-compartment model, oral 200 mg/kg): 2,030 μg·min·mL^−1
- Time analyzable in the autosampler tray with acceptable precision and accuracy ([2]; brain tissue samples, 4 °C): over 8 h
- Long-term storage stability (time stable) ([2]; brain tissue samples, −70 °C): over 1 month
- Accuracy Bias [2, 10]: 3.75%
- Observed Concentration ± S.D. [2, 10]: 0.83 ± 0.08 µg/mL
- Accuracy Bias [2, 11]: 9.00%
- Observed Concentration ± S.D. [2, 11]: 4.36 ± 0.34 µg/mL
- Accuracy Bias [2, 12]: 3.60%
- Observed Concentration ± S.D. [2, 12]: 10.36 ± 0.52 µg/mL
- Accuracy Bias [2, 13]: 8.75%
- Observed Concentration ± S.D. [2, 13]: 0.87 ± 0.11 µg/mL
- Accuracy Bias [2, 14]: −10.0%
- Observed Concentration ± S.D. [2, 14]: 3.60 ± 0.33 µg/mL
- Accuracy Bias [2, 15]: −1.70%
- Observed Concentration ± S.D. [2, 15]: 9.83 ± 0.43 µg/mL
- Accuracy Bias [2, 16]: −10.00%
- Observed Concentration ± S.D. [2, 16]: 0.72 ± 0.10 µg/mL
- Accuracy Bias [2, 17]: −6.75%
- Observed Concentration ± S.D. [2, 17]: 3.73 ± 0.41 µg/mL
- Accuracy Bias [2, 18]: 4.30%
- Observed Concentration ± S.D. [2, 18]: 10.43 ± 0.98 µg/mL
- Freeze/thaw stability ([2]; brain tissue, three cycles, stored at −70 °C and thawed to room temperature): stable
- Time analyzable in the autosampler tray with acceptable precision and accuracy ([3]; plasma samples, 4 °C): over 8 h
- Long-term storage stability (time stable) ([3]; plasma samples, −70 °C): over 1 month
- Accuracy Bias [3, 19]: −1.00%
- Observed Concentration ± S.D. [3, 19]: 0.79 ± 0.08 µg/mL
- Accuracy Bias [3, 20]: 0.25%
- Observed Concentration ± S.D. [3, 20]: 4.01 ± 0.14 µg/mL
- Accuracy Bias [3, 21]: −0.70%
- Observed Concentration ± S.D. [3, 21]: 9.93 ± 0.67 µg/mL
- Accuracy Bias [3, 22]: 3.75%
- Observed Concentration ± S.D. [3, 22]: 0.83 ± 0.05 µg/mL
- Accuracy Bias [3, 23]: −1.75%
- Observed Concentration ± S.D. [3, 23]: 3.93 ± 0.43 µg/mL
- Observed Concentration ± S.D. ([3]; plasma, Autosampler stability (4 °C; 8 h), nominal 10.0 μg/mL): 10.10 ± 0.85 µg/mL
- Accuracy Bias [3, 24]: −3.00%
- Observed Concentration ± S.D. [3, 24]: 0.77 ± 0.06 µg/mL
- Accuracy Bias [3, 25]: 6.50%
- Observed Concentration ± S.D. [3, 25]: 4.26 ± 0.31 µg/mL
- Accuracy Bias [3, 26]: −5.70%
- Observed Concentration ± S.D. [3, 26]: 9.43 ± 0.83 µg/mL
- Freeze/thaw stability ([3]; plasma, three cycles, stored at −70 °C and thawed to room temperature): stable
